Measured values published in article PMC3476531, “Synergy of Peptide and Sugar in O-GlcNAcase Substrate Recognition” (Chemistry & Biology, 2012).

The substances below were run against CpOGA (Clostridium perfringens, UniProt Q0TR53). Conditions: read-out: Michaelis constant (KM) of glycopeptide substrate for CpOGA; pH 7.4.

In order of rising Km:
1. p53 (Ser149) 11: 11-residue O-GlcNAc glycopeptide derived from p53 Ser149 site  2.9 ± 0.4 µM
2. PVSVPYS(O-GlcNAc)SAQSTS [TAB1 (Ser395) 13]  36 ± 1 µM
3. VAHS(O-GlcNAc)GAK [hOGA (Ser405) 7]  40 ± 10 µM
